In PMC10733463, “Berberine-microbiota interplay: orchestrating gut health through modulation of the gut microbiota and metabolic transformation into bioactive metabolites” (Frontiers in Pharmacology, 2023):

Key:
[1] = UPLC-MS/MS quantification of berberine and metabolites in plasma; type: in vivo, Ross 308 broiler chickens; details: chickens fed 0.1, 0.5 or 1 g berberine/kg feed for 21 days; LOQ 0.1 ng/mL
Description: (§1) The study was undertaken following the guidelines of the ethics committee of the Faculty of Veterinary Medicine and Bioscience Engineering, Ghent University, in accordance with the EU Directive 2010/63/EU. One-day-old Ross 308 male broilers were obtained from a local hatchery and housed in pens on wood shavings. They were allotted into 4 groups, with three replicate pens per group each housing 8 chickens. The animals were not vaccinated. Water and commercial starter feed (day 1–12, FARM 1 Mash, Country’s Best, Versele Laga, Deinze, Belgium) or grower (day 13–21, FARM 2 mash, Country’s Best, Versele Laga, Deinze, Belgium) were provided ad libitum. The control group received the standard non-supplemented diets, whereas the chickens in other groups were fed the same feed supplemented with 0.1, 0.5 or 1 g berberine/kg feed throughout the whole trial period. At day 21, 4 birds per pen were weighted then euthanized by sodium pentobarbital injection for sampling. Individual jejunal, ileal, caecal and colonic contents were stored at −20°C for microbiota composition analysis (16S rRNA gene sequencing). Additionally, ileal and caecal content samples were collected and stored at −20°C for berberine and berberine-derived metabolite quantification. Duodenal tissue samples were collected and fixed in 4% phosphate buffered formaldehyde for histological analysis. Blood samples were collected in heparin tubes and centrifuged at 524 g for 10 min to recover the plasma fraction, which was further mixed with 17 mg/mL L-ascorbic acid for dihydroberberine stabilization, and stored at −20°C for berberine and berberine-derived metabolite quantification.
(§2) The column temperature was maintained at 25°C. The autosampler temperature was set at 10°C.
A 137.5 µL plasma sample containing 17 mg/mL L-ascorbic acid was used for sample extraction. The ascorbic acid solution was added to prevent oxidation of dihydroberberine to berberine during sample storage ([Feng et al., 2015]). The plasma sample was transferred to an OstroTM 96 well-plate (25 mg) (Waters). Subsequently, 50 µL Milli-Q water and 25 µL of an internal standard solution containing 100 ng/mL of both berberine-d6 and tetrahydropalmatine were added. A 640 µL volume of 1% (v/v) formic acid solution in acetonitrile (1/3 ratio) was added, followed by gentle mixing. Vacuum was applied on the Ostro™ plate for 5 min and the eluate was collected in a 2 mL square 96-well collector plate. The sample was transferred in a glass tube and evaporated at 40°C under a gentle stream of nitrogen in a Pierce (Rockford, United States) Reacti-Therm III™ Heating Module and Reacti-Vap™ III Module. The dried sample extract was reconstituted in 500 µL Milli-Q water, followed by injection of a 5 µL sample aliquot onto the UPLC-MS/MS apparatus. Quantification was based on the ratio of the analyte peak area compared to the peak area of the internal standard berberine-d6.
Calibration standards and quality control samples were prepared as follows: 137.5 µL of blank plasma stabilized with 17 mg/mL L-ascorbic acid were supplemented with 25 µL mixed working solutions of berberine and metabolites (except dihydroberberine) at different levels, 25 µL of dihydroberberine working solution, stabilized with 17 mg/mL L-ascorbic acid, at different levels and 25 µL of an internal standard solution containing 100 ng/mL of both berberine-d6 and tetrahydropalmatine. The calibration curve was in the 0.1–100 ng/mL range, including 0.1, 0.5, 1, 2.5, 5, 10, 25, […], 50 and 100 ng/mL levels.
The UPLC-MS/MS analysis method for the quantification of berberine and berberine-derived metabolites both in plasma and ileal/caecal intestinal content was validated to the guidelines of the European Medicines Agency, i.e., of the Committee for Veterinary Medicinal Products (EMEA/CVMP/VICH/463202/2009) and of the Committee for Medicinal Products for Human Use (EMEA/CHMP/EWP/192217/20), and in accordance with the EU Directive 2002/657/EC. […]

[2] = UPLC-MS/MS quantification of berberine and metabolites in ileal and caecal content; type: in vivo, Ross 308 broiler chickens; details: 21 days
Description: as §1, §2
250 mg of ileal or caecal content was weighed in a 15 mL polypropylene centrifuge tube and 250 µL of ascorbic acid 170 mg/mL solution was added for stabilization of dihydroberberine, followed by brief vortexing. Subsequently, 25 µL of an internal standard solution containing 250 μg/mL of berberine-d6 and 2.5 μg/mL tetrahydropalmatine were added, followed by brief vortexing. A 2.5 mL volume of extraction solvent was then added, consisting of a 1% (v/v) formic acid solution in methanol. The sample was put on a rotary shaker set at 80 rpm for 20 min, followed by centrifugation (3,720 g, 10 min, 4°C). The supernatant was then diluted, by a factor 5 for measurement of low abundance components, and by a factor 2,000 for measurement of high abundance components. The 1/5 diluted sample extract was prepared directly in an autosampler vial as follows: 200 µL sample extract were mixed with 100 µL ascorbic acid 170 mg/mL solution and 700 µL Milli-Q water. For the 1/2,000 diluted sample extract, an intermediate 1/100 sample dilution was prepared by combining 500 µL sample extract and 49.5 mL of Milli-Q water. 50 μL was then transferred in an autosampler vial followed by the addition of 950 µL of Milli-Q water. For both dilutions, a 5 µL sample aliquot was injected onto the UPLC-MS/MS apparatus. Quantification was based on the ratio of the analyte peak area compared to the peak area of the internal standard tetrahydropalmatine for 1/5 diluted sample extracts, and on the ratio of the analyte peak area compared to the peak area of the internal standard berberine-d6 for 1/2,000 diluted sample extracts.
Calibration standards and quality control samples were prepared as follows: 250 mg of blank ileal or caecal content were supplemented with 250 µL of ascorbic acid 170 mg/mL solution, 25 µL mixed solution of berberine and metabolites (with the exception of dihydroberberine) at different levels, 25 µL of dihydroberberine solution, stabilized with 17 mg/mL ascorbic acid, at different levels and 25 µL of an internal standard solution containing 0.625 μg/mL of berberine-d6 and 2.5 μg/mL tetrahydropalmatine. The calibration curve was in the 62.5–5,000 ng/g range, and included 62.5, 125, 250, 500, 1,000, 2,500, and 5,000 ng/g levels. […]

[3] = system: Anaerostipes butyraticus (35–7); details: 35-7, chicken, 10 µg/mL, pH 6
Description: (§3) Six strains were tested for their ability to convert berberine into berberine-demethylated metabolites. […] Strains were sub-cultured overnight in M2GSC medium pH 6. The next day, caecal content from a 3-week-old broiler chicken was sampled in anaerobic conditions and 1:1,000 diluted in M2GSC medium pH 6 containing 10 μg/mL berberine. Caecal mixtures were enriched with 1:100 diluted overnight cultures of single bacteria, or with M2GSC (control), and incubated in a 24-well plate, for 48 h. […] Samples were collected and processed as described before. Each bacterial strain was tested in triplicate at 37°C–40°C under anaerobic conditions.
(§4) The UPLC instrument consisted of an Acquity H-Class Quaternary Solvent Manager and an Acquity FTN Sample Manager (Waters, Berchem, Belgium). For chromatographic separation, an Acquity UPLC® HSS T3 column (1.8 µm, 100 mm × 2.1 mm i.d.) was used, protected by a precolumn of the same type (VanGuardTM, 5 mm × 2.1 mm i.d.), both from Waters. […] The column temperature was maintained at 25°C. The autosampler temperature was set at 10°C. The UPLC effluent was sent from 1.2 min to 9.5 min by use of a divert valve to a Xevo TQ-S® triple quadrupole mass spectrometer from Water, equipped with an ESI ion source operating in the positive ionization mode from. The UPLC-MS/MS analysis was run under control of MassLynx software (v4.1), which was used for subsequent data processing as well. For the injection of 1/5 diluted intestinal content samples (see section Preparation of intestinal content samples (ileum and caecum)), the divert valve was used in addition from 7.1 min to 8.4 min to deviate the high amount of berberine and associated IS berberine-d6 eluting in that time window from the UPLC column directly to the waste, rather than to the MS detector to avoid oversaturation of the instrument, influencing subsequent sample extract injections at well. Operating conditions for the ESI source used in the positive ionization mode were optimized by direct infusion of all individual components in combination with the mobile phase at 50% A/50% B delivered at a flow rate of 0.3 mL/min. The following tune parameters were used for detection of all components: capillary voltage, 3 kV, cone voltage, 10 V, source offset, 50 V, source temperature, 150°C, desolvation temperature, 500°C, desolvation gas flow, 800 L/h, cone gas flow, 150 L/h, collision gas flow, 0.2 mL/min, ion energy 1 and 2, 0.5, LM 1 and LM 2 resolution, 3, HM 1 and HM 2 resolution, 15. Components were detected in MS/MS mode using component specific MRM (Multiple Reaction Monitoring) transitions (Supplementary Table S1). Since a commercial standard of thalifendine was not available, MS/MS detection parameters and calibration of berberrubine were used for the detection and quantification of thalifendine, which is a reasonable approach, since both compounds are isomers. No commercial reference standards were available for phase II metabolites, therefore “calculated” MRM transitions were defined as follows: [M + -Gluc] > M+ for glucuronide forms and [M + -SO3] > M+ for sulfate forms, where the loss of glucuronic acid or sulfate corresponded to a mass shift of 176 Da or 80 Da respectively. Phase II metabolites were quantified relatively using the berberine calibration curve ([Wang et al., 2017a]; [Kwon et al., 2020]).

B. coccoides (DSM 935) [4] = details: DSM 935, chicken, 10 µg/mL, pH 6
Description: as §3, §4

[5] = system: Blautia hansenii (DSM 20583); details: DSM 20583, chicken, 10 µg/mL, pH 6
Description: as §3, §4

[6] = system: Blautia hydrogenotrophica (DSM 10507); details: DSM 10507, chicken, 10 µg/mL, pH 6
Description: as §3, §4

Blautia luti (DSM 14534) = details: DSM 14534, chicken, 10 µg/mL, pH 6
Description: as §3, §4

[7] = system: Eubacterium limosum (LMG 28910); details: LMG 28910, chicken, 10 µg/mL, pH 6
Description: as §3, §4

B. coccoides (DSM 935) [8] = details: Blautia coccoides, 10 µg/mL, pH 6
Caco-2 monolayers = system: Caco-2 monolayers; set-up: method as in Zhang et al., 2019; details: in vitro, among berberine metabolites; ref Zhang et al., 2019; cited from earlier work
[9] = rats, oral administration of berberine; cited from earlier work

| Ratio caecum / ileum (concentration) ([2]; 0.1 g berberine/kg feed) | Ratio caecum / ileum (concentration) ([2]; 0.5 g berberine/kg feed) | Ratio caecum / ileum (concentration) ([2]; 1 g berberine/kg feed) | Log2(fold change) of metabolite response at 48 h, culture with bacteria over control (berberine-medium + microbiota) [3] | Log2(fold change) of metabolite response at 48 h, culture with bacteria over control (berberine-medium + microbiota) (B. coccoides (DSM 935) [4]) | Log2(fold change) of metabolite response at 48 h, culture with bacteria over control (berberine-medium + microbiota) [5] | Log2(fold change) of metabolite response at 48 h, culture with bacteria over control (berberine-medium + microbiota) [6] | Log2(fold change) of metabolite response at 48 h, culture with bacteria over control (berberine-medium + microbiota) (Blautia luti (DSM 14534)) | Log2(fold change) of metabolite response at 48 h, culture with bacteria over control (berberine-medium + microbiota) [7] | Log2(fold change) of metabolite response at 48 h, B. coccoides pure culture over berberine-medium (B. coccoides (DSM 935) [8]) | Structure (SMILES) | Detection in plasma [1] | Permeability across Caco-2 monolayers (Caco-2 monolayers) | Amount quantified in feces [9] [%] |
| --- | --- | --- | --- | --- | --- | --- | --- | --- | --- | --- | --- | --- | --- |
|  |  |  |  |  |  |  |  |  |  | COc1cc2c(cc1OS(=O)(=O)[O-])-c1cc3ccc(OC)c(OC)c3c[n+]1CC2 [columbamine-sulfate] | not detected |  |  |
| 6.68 | 29.03 | 21.17 | 0.21 | 4.46 | 0.34 | 0.26 | -1.30 | 1.37 | 9.30 | COc1c(O)ccc2cc3[n+](cc12)CCc1cc2c(cc1-3)OCO2 [Thalifendine] |  | most permeable |  |
| 15.66 | 30.48 | 32.10 | 0.15 | 1.07 | -0.02 | -3.33e-003 | 1.34 | 0.21 | 1.71 | COc1ccc2cc3[n+](cc2c1OC)CCc1cc(O)c(O)cc1-3 [Demethyleneberberine] |  | most permeable | 1.49 |

| Structure (SMILES) | Ratio caecum / ileum (concentration) ([2]; 0.1 g berberine/kg feed) | Ratio caecum / ileum (concentration) ([2]; 0.5 g berberine/kg feed) | Ratio caecum / ileum (concentration) ([2]; 1 g berberine/kg feed) | Log2(fold change) of metabolite response at 48 h, culture with bacteria over control (berberine-medium + microbiota) [3] | Log2(fold change) of metabolite response at 48 h, culture with bacteria over control (berberine-medium + microbiota) (B. coccoides (DSM 935) [4]) | Log2(fold change) of metabolite response at 48 h, culture with bacteria over control (berberine-medium + microbiota) [5] | Log2(fold change) of metabolite response at 48 h, culture with bacteria over control (berberine-medium + microbiota) [6] | Log2(fold change) of metabolite response at 48 h, culture with bacteria over control (berberine-medium + microbiota) (Blautia luti (DSM 14534)) | Log2(fold change) of metabolite response at 48 h, culture with bacteria over control (berberine-medium + microbiota) [7] | Log2(fold change) of metabolite response at 48 h, B. coccoides pure culture over berberine-medium (B. coccoides (DSM 935) [8]) | Detection in plasma [1] | Permeability across Caco-2 monolayers (Caco-2 monolayers) | Amount quantified in feces [9] [%] |
| --- | --- | --- | --- | --- | --- | --- | --- | --- | --- | --- | --- | --- | --- |
| COc1cc2c(cc1O)-c1cc3ccc(OC)c(OC)c3c[n+]1CC2 [Columbamine, columbamine] | 0.27 | 0.32 | 0.44 |  |  |  |  |  |  |  | below LOQ |  |  |
